According to article PMC8921065, “Combination of terbium-161 with somatostatin receptor antagonists—a potential paradigm shift for the treatment of neuroendocrine neoplasms” (European Journal of Nuclear Medicine and Molecular Imaging, 2021):
Values joined by “and” are separate entries in the source; they are usually repeats but may differ in a detail not shown here. Identical values can stand only once. Like-named read-outs stand apart in the source and are kept apart here. Where a SMILES comes first, the peptide text is derived from it. Bridges are numbered along the chain shown (N, C = ends). [ ]: non-standard residue; d: D form. The star is where a group is joined. DOTA = O=C(O)CN1CCN(CC(=O)O)CCN(CC(=O)*)CCN(CC(=O)O)CC1; dPhe(4-NHCONH2) = NC(=O)Nc1ccc(C[C@@H](N)C(=O)O)cc1; Phe(4-Cl) = N[C@@H](Cc1ccc(Cl)cc1)C(=O)O

How the values were obtained:
AR42J tumor-bearing mice [1] = details: 2 h p.i., 1.0 nmol/mouse, ref Borgna et al., 2021 [11], cited from earlier work
in vivo = details: mouse, iv, total radioactivity
[2] = Early side effects: relative body weight, organ masses and mass ratios; type: in vivo, mice; details: at euthanasia
Source text: At the same time, relevant organs and tissues were collected, and the masses were put into relation to the brain mass of the respective mouse in order to allow the comparison of organ-to-brain and organ-to-body weight ratios among the single treatment groups (Supplementary Material).
Definition of relative body weight (RBW): The RBW was defined as [BWx/ BW0], where BWx is the body weight in gram at a given Day x and BW0 the body weight in gram at Day 0.

[3] = Early side effects: blood plasma chemistry; type: in vivo, mice; details: endpoint of the therapy
AR42J tumor-bearing mice [4] = assay: Therapy study, therapeutic efficacy; details: for tumor growth delay: day 0 and day 7; for Time frame of euthanasia: end of study day 49
Description: The therapy study was initiated with mice randomly assigned to five groups (n = 6) when the AR42J tumors reached an average volume of 99 ± 16 mm^3. […] The endpoint criteria were defined according to a scoring system which required euthanasia of mice with a score ≥ 3 (Supplementary Material).
For the subsequent phase, in which the tumors started to regrow, the doubling time of the tumor volume was calculated based on the fitted exponential tumor growth curve. The average ± SD of tumor growth delay and of the doubling time of the tumor volume in single mice, respectively, were compared among groups with a one-way ANOVA with Tukey’s multiple comparisons post-test. The survival times of mice were presented by Kaplan–Meier curves and analyzed using a log-rank test (Mantel-Cox).
Definition of tumor volume (V) and relative tumor volume (RTV): The tumor dimension was determined by measuring the longest tumor axis (L) and its perpendicular axis (W) with a digital caliper. The tumor volume (TV) was calculated according to the equation [V = 0.5 × (L × W^2)]. The relative tumor volume (RTV) was defined as [TVx/TV0], where TVx is the tumor volume in mm^3 at a given Day x and TV0 the tumor volume in mm^3 at Day 0.
Scoring system: Endpoint criteria were defined using a scoring system which required euthanasia of mice with a score ≥3. Every second day, the following criteria were assessed in the mice, assigning a score from 0–3 for each criterion: (i) appearance (general status, skin color, etc.), (ii) behavior (vitality, sociality, crouching etc.), (iii) body weight (stable, loss >5 ≤10%, loss >10 <15%, loss ≥ 15% compared to initial body weight), (iv) tumor size (<800 mm^3, ≥800 and <900 mm^3, ≥900 and <1000 mm^3, ≥1000 mm^3), (v) tumor ulceration. A score ≥3 was for example due to: (i) appearance of wrinkled, translucent skin, (ii) mouse in crouching position and/or apathetic, (iii) a body weight loss of ≥15% of initial body weight, (iv) a tumor volume of ≥1000 mm^3, (iii/iv) a combination of a tumor size of ≥800 mm^3 and body weight loss of ≥10% and/or (v) ulceration of the tumor.

metastatic NENs = details: human, in vivo; cited from earlier work

SMILES | Organ mass Brain [2] | Organ mass Kidneys [2] | Organ mass Liver [2] | Organ mass Spleen [2] | ALB [3] | ALP [3] | BUN [3] | CRE [3] | TBIL [3] | AR42J tumor uptake (AR42J tumor-bearing mice [1]) | Adrenals uptake (AR42J tumor-bearing mice [1]) | Blood uptake (AR42J tumor-bearing mice [1]) | Femur uptake (AR42J tumor-bearing mice [1]) | Heart uptake (AR42J tumor-bearing mice [1]) | Intestines uptake (AR42J tumor-bearing mice [1]) | Kidneys uptake (AR42J tumor-bearing mice [1]) | Liver uptake (AR42J tumor-bearing mice [1]) | Lung uptake (AR42J tumor-bearing mice [1]) | tumor growth delay (AR42J tumor-bearing mice [4]; 2 × 10 MBq, 0.2 nmol) | Median survival (AR42J tumor-bearing mice [4]; mouse, in vivo) | also measured
C[C@@H](O)[C@@H]1NC(=O)[C@H](CCCCN)NC(=O)[C@@H](Cc2ccc(NC(N)=O)cc2)NC(=O)[C@H](Cc2ccc(O)cc2)NC(=O)[C@H](NC(=O)[C@H](Cc2ccc(Cl)cc2)NC(=O)CN2CCN(CC(=O)O)CCN(CC(=O)O)CCN(CC(=O)O)CC2)CSSC[C@@H](C(=O)N[C@H](Cc2ccc(O)cc2)C(N)=O)NC1=O [DOTA-LM3] | – | – | – | – | – | – | – | – | – | – | – | – | – | – | – | – | – | – | – | – | AR42J tumor uptake (AR42J tumor-bearing mice [1]; listed as [^161Tb]Tb/[^177Lu]Lu-DOTA-LM3): ~ 18 % IA/g
C[C@@H](O)[C@@H]1NC(=O)[C@H](CCCCN)NC(=O)[C@@H](Cc2c[nH]c3ccccc23)NC(=O)[C@H](Cc2ccc(O)cc2)NC(=O)[C@@H](NC(=O)[C@@H](Cc2ccccc2)NC(=O)CN2CCN(CC(=O)O)CCN(CC(=O)O)CCN(CC(=O)O)CC2)CSSC[C@@H](C(=O)N[C@H](CO)[C@@H](C)O)NC1=O [DOTATOC, DOTA-[Tyr^3]-octreotide] | – | – | – | – | – | – | – | – | – | – | – | – | – | – | – | – | – | – | – | – | tissue uptake at 2 h (in vivo; AR42J tumor, 0.04 nmol/mouse): ~17 %ID/g; tissue uptake at 2 h (in vivo; AR42J tumor, 0.2 nmol/mouse): ~15 %ID/g; tissue uptake at 2 h (in vivo; liver): ~0.2 %ID/g; AR42J tumor uptake (AR42J tumor-bearing mice [1]; listed as [^161Tb]Tb-/[^177Lu]Lu-DOTATOC): ~ 8 % IA/g
C[C@@H](O)[C@@H]1NC(=O)[C@H](CCCCN)NC(=O)[C@@H](Cc2c[nH]c3ccccc23)NC(=O)[C@H](Cc2ccc(O)cc2)NC(=O)[C@@H](NC(=O)[C@@H](Cc2ccccc2)NC(=O)CN2CCN(CC(=O)O)CCN(CC(=O)O)CCN(CC(=O)O)CC2)CSSC[C@@H](C(=O)N[C@H](CO)[C@@H](C)O)NC1=O [[^161Tb]Tb-DOTATOC] [metal not drawn] | 440 ± 23 mg | 352 ± 27 mg | 1195 ± 57 mg | 86 ± 19 mg | 23 ± 2 g/L | 76 ± 21 U/L | 5.8 ± 1.0 mmol/L | <18 (n=6) µmol/L | < 3 µmol/L and 4 ± 1 µmol/L | 8.2 ± 0.2 % IA/g | 0.25 ± 0.06 % IA/g | ≤0.10 % IA/g | ≤0.10 % IA/g | ≤0.10 % IA/g | 0.21 ± 0.13 % IA/g | 9.9 ± 1.3 % IA/g | 0.17 ± 0.01 % IA/g | 0.27 ± 0.03 % IA/g | 9.0 ± 5.5 days | 21 days | Muscle uptake (AR42J tumor-bearing mice [1]): ≤0.10 % IA/g; Pancreas uptake (AR42J tumor-bearing mice [1]): 0.71 ± 0.07 % IA/g; Spleen uptake (AR42J tumor-bearing mice [1]): 0.11 ± 0.02 % IA/g; Stomach uptake (AR42J tumor-bearing mice [1]): 0.74 ± 0.38 % IA/g; Time frame of euthanasia (AR42J tumor-bearing mice [4]; 2 × 10 MBq, 0.2 nmol): 20 to 26 days
C[C@@H](O)[C@@H]1NC(=O)[C@H](CCCCN)NC(=O)[C@@H](Cc2ccc(NC(N)=O)cc2)NC(=O)[C@H](Cc2ccc(O)cc2)NC(=O)[C@H](NC(=O)[C@H](Cc2ccc(Cl)cc2)NC(=O)CN2CCN(CC(=O)O)CCN(CC(=O)O)CCN(CC(=O)O)CC2)CSSC[C@@H](C(=O)N[C@H](Cc2ccc(O)cc2)C(N)=O)NC1=O [[^177Lu]Lu-DOTA-LM3] [metal not drawn] ({DOTA}-[Phe(4-Cl)][dC]Y[dPhe(4-NHCONH2)]KTC[dY]-NH2; disulfide 2-7 (inferred); C-terminus assumed) | 471 ± 30 mg | 336 ± 13 mg | 1254 ± 106 mg | 92 ± 17 mg | 23 ± 1 g/L | 66 ± 5 U/L | 8.2 ± 1.9 mmol/L and 8.2 ± 1.8 mmol/L | < 18 µmol/L and 19 µmol/L | < 3 µmol/L and 4 ± 1 µmol/L | – | – | – | – | – | – | – | – | – | 35 ± 7 days | 48.5 days | tolerability in patients (metastatic NENs): well tolerated; tumor doses compared to [177Lu]Lu-DOTATOC (metastatic NENs): higher tumor doses; mice with exponential tumor regrowth (AR42J tumor-bearing mice [4]; after the growth delay): 5 out of 6; mice surviving until the end of the study (AR42J tumor-bearing mice [4]; mouse, in vivo): three out of six mice; doubling time of the tumor volume (AR42J tumor-bearing mice [4]; regrowth phase, 2 × 10 MBq, 0.2 nmol): 3.8 ± 1.1 days
C[C@@H](O)[C@@H]1NC(=O)[C@H](CCCCN)NC(=O)[C@@H](Cc2c[nH]c3ccccc23)NC(=O)[C@H](Cc2ccc(O)cc2)NC(=O)[C@@H](NC(=O)[C@@H](Cc2ccccc2)NC(=O)CN2CCN(CC(=O)O)CCN(CC(=O)O)CCN(CC(=O)O)CC2)CSSC[C@@H](C(=O)N[C@H](CO)[C@@H](C)O)NC1=O [[^177Lu]Lu-DOTATOC] [metal not drawn] | 453 ± 31 mg | 342 ± 23 mg | 1121 ± 123 mg | 90 ± 17 mg | 24 ± 5 g/L | 77 ± 8 U/L | 6.3 ± 0.9 mmol/L | <18 (n=5) µmol/L | < 3 µmol/L and 4 ± 1 µmol/L | 8.9 ± 1.5 % IA/g | 0.28 ± 0.08 % IA/g | ≤0.10 % IA/g | ≤0.10 % IA/g | ≤0.10 % IA/g | 0.20 ± 0.05 % IA/g | 11 ± 1 % IA/g | 0.26 ± 0.07 % IA/g | 0.37 ± 0.06 % IA/g | 6.0 ± 4.4 days and 6 ± 4 days | 19.5 days | Muscle uptake (AR42J tumor-bearing mice [1]): ≤0.10 % IA/g; Pancreas uptake (AR42J tumor-bearing mice [1]): 0.80 ± 0.13 % IA/g; Spleen uptake (AR42J tumor-bearing mice [1]): 0.15 ± 0.03 % IA/g; Stomach uptake (AR42J tumor-bearing mice [1]): 0.65 ± 0.11 % IA/g; Time frame of euthanasia (AR42J tumor-bearing mice [4]; 2 × 10 MBq, 0.2 nmol): 12 to 22 days
